Test system: 439559-082-T-J2-PDC spheroid viability
Experiment: Anticancer human tumor 439559-082-T-J2-PDC patient-derived colon adenocarcinoma cell line growth inhibition [POLQ]
Settings: spheroids with HUVEC and MSC; for IC50: curve of first compound; for viability, T/C: stronger effect = lower value
Summary of the method: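 Three-cell-type spheroids modelling solid tumor plus stroma served as the readout system; POL inhibitors were tested individually and in combination, concentration ranges set by clinical Cmax where known.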

[1] = second compound 0.0316 µM, first compound 0.00316 µM
[2] = second compound 0.0316 µM, first compound 0.01 µM
[3] = second compound 0.0316 µM, first compound 0.0316 µM
[4] = second compound 0.0316 µM, first compound 0.1 µM
[5] = second compound 0.1 µM, first compound 0.00316 µM
[6] = second compound 0.1 µM, first compound 0.01 µM
[7] = second compound 0.1 µM, first compound 0.0316 µM
[8] = second compound 0.1 µM, first compound 0.1 µM
[9] = second compound 0.316 µM, first compound 0.00316 µM
[10] = second compound 0.316 µM, first compound 0.01 µM
[11] = second compound 0.316 µM, first compound 0.0316 µM
[12] = second compound 0.316 µM, first compound 0.1 µM
[13] = second compound 1 µM, first compound 0.00316 µM
[14] = second compound 1 µM, first compound 0.01 µM
[15] = second compound 1 µM, first compound 0.0316 µM
[16] = second compound 1 µM, first compound 0.1 µM
[17] = second compound 3.16 µM, first compound 0.00316 µM
[18] = second compound 3.16 µM, first compound 0.01 µM
[19] = second compound 3.16 µM, first compound 0.0316 µM
[20] = second compound 3.16 µM, first compound 0.1 µM
[21] = second compound 10 µM, first compound 0.00316 µM
[22] = second compound 10 µM, first compound 0.01 µM
[23] = second compound 10 µM, first compound 0.0316 µM
[24] = second compound 10 µM, first compound 0.1 µM
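Further: spheroids exposed to compounds for seven days before readout.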
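Wherever viability, T/C is given: 100% = DMSO vehicle control viability.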

With `C=CCn1c(=O)c2cnc(Nc3ccc(N4CCN(C)CC4)cc3)nc2n1-c1cccc(C(C)(C)O)n1` + Nc1ccc(C#CCN(C(=O)Cc2ncc(C(F)(F)F)cc2C(F)(F)F)c2ccc(F)cc2)nn1 the IC50 (second compound 0.0316 µM) was greater than 1000 nM, the IC50 (second compound 0.1 µM) was greater than 1000 nM and the IC50 (second compound 0.316 µM) was greater than 1000 nM. For the same compound, the IC50 (second compound 1 µM) was greater than 1000 nM, the IC50 (second compound 3.16 µM) was greater than 1000 nM and the IC50 (second compound 10 µM) was greater than 1000 nM. The viability, T/C [1] was 111%, the viability, T/C [2] was 109% and the viability, T/C [3] was 109%. It also gave a viability, T/C [4] of 105%, a viability, T/C (second compound 0.0316 µM, first compound 0.316 µM) of 97.5% and a viability, T/C (second compound 0.0316 µM, first compound 1 µM) of 84.7%. The viability, T/C [5] was 108%, the viability, T/C [6] was 94.4% and the viability, T/C [7] was 100%. For the same compound, the viability, T/C [8] was 95.5%, the viability, T/C (second compound 0.1 µM, first compound 0.316 µM) was 97.9% and the viability, T/C (second compound 0.1 µM, first compound 1 µM) was 78.6%. It also gave a viability, T/C [9] of 108%, a viability, T/C [10] of 115% and a viability, T/C [11] of 97.3%. For the same compound, the viability, T/C [12] was 99.1%, the viability, T/C (second compound 0.316 µM, first compound 0.316 µM) was 97.5% and the viability, T/C (second compound 0.316 µM, first compound 1 µM) was 84%. For the same compound, the viability, T/C [13] was 105%, the viability, T/C [14] was 102% and the viability, T/C [15] was 98.4%. For the same compound, the viability, T/C [16] was 101%, the viability, T/C (second compound 1 µM, first compound 0.316 µM) was 103% and the viability, T/C (second compound 1 µM, first compound 1 µM) was 78.7%. It also gave a viability, T/C [17] of 99.6%, a viability, T/C [18] of 107% and a viability, T/C [19] of 98.8%. It also gave a viability, T/C [20] of 99.4%, a viability, T/C (second compound 3.16 µM, first compound 0.316 µM) of 89.5% and a viability, T/C (second compound 3.16 µM, first compound 1 µM) of 79.3%. For the same compound, the viability, T/C [21] was 105%, the viability, T/C [22] was 109% and the viability, T/C [23] was 103%. It also gave a viability, T/C [24] of 105%, a viability, T/C (second compound 10 µM, first compound 0.316 µM) of 99.9% and a viability, T/C (second compound 10 µM, first compound 1 µM) of 71.2%.

With `CC[C@@]1(O)C(=O)OCc2c1cc1n(c2=O)Cc2cc3c(CN(C)C)c(O)ccc3nc2-1` + COC1C(OC(N)=O)C(O)C(Oc2ccc3c(O)c(NC(=O)c4ccc(O)c(CC=C(C)C)c4)c(=O)oc3c2C)OC1(C)C the IC50 (second compound 0.0316 µM) was greater than 100 nM, the IC50 (second compound 0.1 µM) was greater than 100 nM and the IC50 (second compound 0.316 µM) was greater than 100 nM. The IC50 (second compound 1 µM) was greater than 100 nM, the IC50 (second compound 3.16 µM) was greater than 100 nM and the IC50 (second compound 10 µM) was greater than 100 nM. It also gave a viability, T/C (second compound 0.0316 µM, first compound 0.000316 µM) of 99%, a viability, T/C (second compound 0.0316 µM, first compound 0.001 µM) of 100% and a viability, T/C [1] of 92.3%. It also gave a viability, T/C [2] of 96.1%, a viability, T/C [3] of 89.5% and a viability, T/C [4] of 74.2%. The viability, T/C (second compound 0.1 µM, first compound 0.000316 µM) was 99%, the viability, T/C (second compound 0.1 µM, first compound 0.001 µM) was 98.5% and the viability, T/C [5] was 101%. The viability, T/C [6] was 101%, the viability, T/C [7] was 87.7% and the viability, T/C [8] was 79.2%. The viability, T/C (second compound 0.316 µM, first compound 0.000316 µM) was 97.3%, the viability, T/C (second compound 0.316 µM, first compound 0.001 µM) was 99.5% and the viability, T/C [9] was 105%. The viability, T/C [10] was 93.7%, the viability, T/C [11] was 92.3% and the viability, T/C [12] was 79.1%. The viability, T/C (second compound 1 µM, first compound 0.000316 µM) was 105%, the viability, T/C (second compound 1 µM, first compound 0.001 µM) was 115% and the viability, T/C [13] was 104%. For the same compound, the viability, T/C [14] was 97.5%, the viability, T/C [15] was 94.2% and the viability, T/C [16] was 82.5%. For the same compound, the viability, T/C (second compound 3.16 µM, first compound 0.000316 µM) was 100%, the viability, T/C (second compound 3.16 µM, first compound 0.001 µM) was 99.8% and the viability, T/C [17] was 105%. It also gave a viability, T/C [18] of 92.6%, a viability, T/C [19] of 94.4% and a viability, T/C [20] of 74.7%. It also gave a viability, T/C (second compound 10 µM, first compound 0.000316 µM) of 105%, a viability, T/C (second compound 10 µM, first compound 0.001 µM) of 101% and a viability, T/C [21] of 94.5%. For the same compound, the viability, T/C [22] was 100%, the viability, T/C [23] was 91.3% and the viability, T/C [24] was 77.6%.

With `CC(=O)O[C@H]1C(=O)[C@@]2(C)[C@H]([C@H](OC(=O)c3ccccc3)[C@]3(O)C[C@H](OC(=O)[C@H](O)[C@@H](NC(=O)c4ccccc4)c4ccccc4)C(C)=C1C3(C)C)[C@]1(OC(C)=O)CO[C@@H]1C[C@@H]2O` + Nc1ccc(C#CCN(C(=O)Cc2ncc(C(F)(F)F)cc2C(F)(F)F)c2ccc(F)cc2)nn1 the IC50 (second compound 0.0316 µM) was 730 nM, the IC50 (second compound 0.1 µM) was 1250 nM and the IC50 (second compound 0.316 µM) was 807 nM. It also gave an IC50 (second compound 1 µM) of 898 nM, an IC50 (second compound 3.16 µM) of 511 nM and an IC50 (second compound 10 µM) of 363 nM. It also gave a viability, T/C (second compound 0.0316 µM, first compound 0.00949 µM) of 51.6%, a viability, T/C (second compound 0.0316 µM, first compound 0.03 µM) of 54.9% and a viability, T/C (second compound 0.0316 µM, first compound 0.0949 µM) of 75.6%. The viability, T/C (second compound 0.0316 µM, first compound 0.3 µM) was 77.2%, the viability, T/C (second compound 0.0316 µM, first compound 0.949 µM) was 45.6% and the viability, T/C (second compound 0.0316 µM, first compound 3 µM) was 22.1%. The viability, T/C (second compound 0.1 µM, first compound 0.00949 µM) was 53%, the viability, T/C (second compound 0.1 µM, first compound 0.03 µM) was 53.8% and the viability, T/C (second compound 0.1 µM, first compound 0.0949 µM) was 72.7%. It also gave a viability, T/C (second compound 0.1 µM, first compound 0.3 µM) of 77.3%, a viability, T/C (second compound 0.1 µM, first compound 0.949 µM) of 53.2% and a viability, T/C (second compound 0.1 µM, first compound 3 µM) of 25.8%. For the same compound, the viability, T/C (second compound 0.316 µM, first compound 0.00949 µM) was 54%, the viability, T/C (second compound 0.316 µM, first compound 0.03 µM) was 58.5% and the viability, T/C (second compound 0.316 µM, first compound 0.0949 µM) was 79.9%. It also gave a viability, T/C (second compound 0.316 µM, first compound 0.3 µM) of 78.7%, a viability, T/C (second compound 0.316 µM, first compound 0.949 µM) of 47.1% and a viability, T/C (second compound 0.316 µM, first compound 3 µM) of 18.9%. For the same compound, the viability, T/C (second compound 1 µM, first compound 0.00949 µM) was 46.2%, the viability, T/C (second compound 1 µM, first compound 0.03 µM) was 56.7% and the viability, T/C (second compound 1 µM, first compound 0.0949 µM) was 82.3%. It also gave a viability, T/C (second compound 1 µM, first compound 0.3 µM) of 79.8%, a viability, T/C (second compound 1 µM, first compound 0.949 µM) of 49.2% and a viability, T/C (second compound 1 µM, first compound 3 µM) of 19%. For the same compound, the viability, T/C (second compound 3.16 µM, first compound 0.00949 µM) was 37.2%, the viability, T/C (second compound 3.16 µM, first compound 0.03 µM) was 53.5% and the viability, T/C (second compound 3.16 µM, first compound 0.0949 µM) was 81.9%. The viability, T/C (second compound 3.16 µM, first compound 0.3 µM) was 69%, the viability, T/C (second compound 3.16 µM, first compound 0.949 µM) was 37.9% and the viability, T/C (second compound 3.16 µM, first compound 3 µM) was 19.5%. For the same compound, the viability, T/C (second compound 10 µM, first compound 0.00949 µM) was 42.8%, the viability, T/C (second compound 10 µM, first compound 0.03 µM) was 48% and the viability, T/C (second compound 10 µM, first compound 0.0949 µM) was 68.8%. For the same compound, the viability, T/C (second compound 10 µM, first compound 0.3 µM) was 51.7%, the viability, T/C (second compound 10 µM, first compound 0.949 µM) was 38% and the viability, T/C (second compound 10 µM, first compound 3 µM) was 21.9%.

— PubChem BioAssay AID1963841 (Molecular Pharmacology Branch, DTP, NCI, 2024)
